{
  "source": "patent US20250115576A1",
  "about": "“THERAPEUTIC COMPOUNDS AND METHODS OF USE THEREOF” (Genentech, Inc., priority 2018, published 2025)",
  "note": "pIC50: −log10 of the molar value. Structures can show the parent of a compound that is named as a salt.",
  "data": [
    {"biological_target": "hNav1.7 (Homo sapiens (Human), UniProt Q15858)", "sequence (Q15858 other isoform, or with tags, fused parts or gaps)": "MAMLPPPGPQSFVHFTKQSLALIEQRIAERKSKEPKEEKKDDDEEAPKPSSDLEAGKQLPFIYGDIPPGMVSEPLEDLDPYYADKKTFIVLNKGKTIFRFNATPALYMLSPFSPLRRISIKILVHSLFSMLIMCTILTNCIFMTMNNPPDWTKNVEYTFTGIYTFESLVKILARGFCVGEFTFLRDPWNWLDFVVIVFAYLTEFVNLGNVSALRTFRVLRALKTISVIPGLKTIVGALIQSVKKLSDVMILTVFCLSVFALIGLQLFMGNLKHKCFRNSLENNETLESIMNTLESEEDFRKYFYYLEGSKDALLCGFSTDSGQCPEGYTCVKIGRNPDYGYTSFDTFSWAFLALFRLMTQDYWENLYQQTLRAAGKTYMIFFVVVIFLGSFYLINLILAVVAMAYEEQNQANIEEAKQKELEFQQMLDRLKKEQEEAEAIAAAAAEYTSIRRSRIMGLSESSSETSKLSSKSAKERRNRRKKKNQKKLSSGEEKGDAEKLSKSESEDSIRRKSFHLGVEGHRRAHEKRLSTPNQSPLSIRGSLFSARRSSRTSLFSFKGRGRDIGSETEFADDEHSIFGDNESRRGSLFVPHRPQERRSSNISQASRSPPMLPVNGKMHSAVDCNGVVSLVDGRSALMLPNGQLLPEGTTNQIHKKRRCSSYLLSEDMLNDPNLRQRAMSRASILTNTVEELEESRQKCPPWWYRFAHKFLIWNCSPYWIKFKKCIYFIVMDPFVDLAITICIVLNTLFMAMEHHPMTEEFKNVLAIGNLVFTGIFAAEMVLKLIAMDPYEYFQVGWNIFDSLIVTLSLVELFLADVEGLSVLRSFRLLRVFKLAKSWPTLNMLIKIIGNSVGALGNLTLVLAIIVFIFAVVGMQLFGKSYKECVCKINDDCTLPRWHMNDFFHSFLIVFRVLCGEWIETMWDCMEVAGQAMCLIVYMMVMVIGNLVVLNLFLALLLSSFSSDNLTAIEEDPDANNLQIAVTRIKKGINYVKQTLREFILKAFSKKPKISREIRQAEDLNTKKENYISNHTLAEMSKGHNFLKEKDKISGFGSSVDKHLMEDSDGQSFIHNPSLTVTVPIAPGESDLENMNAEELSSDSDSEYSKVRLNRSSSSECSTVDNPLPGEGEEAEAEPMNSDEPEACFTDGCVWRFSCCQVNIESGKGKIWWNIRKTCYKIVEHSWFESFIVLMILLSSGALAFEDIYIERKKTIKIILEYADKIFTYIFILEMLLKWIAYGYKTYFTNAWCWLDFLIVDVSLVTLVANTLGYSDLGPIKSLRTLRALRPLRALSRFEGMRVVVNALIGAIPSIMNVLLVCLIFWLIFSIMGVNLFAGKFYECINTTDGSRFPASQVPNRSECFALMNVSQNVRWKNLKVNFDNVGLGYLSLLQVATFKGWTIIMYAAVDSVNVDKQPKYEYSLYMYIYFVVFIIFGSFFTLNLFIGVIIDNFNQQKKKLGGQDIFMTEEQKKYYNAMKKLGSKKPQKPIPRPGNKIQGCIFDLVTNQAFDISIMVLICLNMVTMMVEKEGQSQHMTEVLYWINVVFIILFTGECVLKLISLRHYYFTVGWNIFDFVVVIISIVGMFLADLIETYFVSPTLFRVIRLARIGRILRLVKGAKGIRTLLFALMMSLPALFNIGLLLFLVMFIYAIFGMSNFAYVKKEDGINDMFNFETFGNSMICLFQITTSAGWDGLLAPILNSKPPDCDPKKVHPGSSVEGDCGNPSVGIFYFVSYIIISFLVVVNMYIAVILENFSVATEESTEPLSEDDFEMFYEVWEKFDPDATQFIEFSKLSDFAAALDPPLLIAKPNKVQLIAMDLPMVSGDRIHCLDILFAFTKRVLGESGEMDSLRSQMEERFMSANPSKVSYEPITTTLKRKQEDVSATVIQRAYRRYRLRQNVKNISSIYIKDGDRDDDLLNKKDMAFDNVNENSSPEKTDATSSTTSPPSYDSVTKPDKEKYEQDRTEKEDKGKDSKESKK", "assay": "Patch voltage clamp electrophysiology (EP), Syncropatch 384PE, CHO cells stably expressing Nav1.7", "format": "cell-based", "conditions": "holding potential −50 mV, 7.5 min compound incubation, read-out: EP_SP hNav1.7 EVO IC50", "text": "Example 64c. Electrophysiological Assay (EP) (In Vitro Assay)\nPatch voltage clamp electrophysiology allows for the direct measurement and quantification of block of voltage-gated sodium channels (NaV's), and allows the determination of the time- and voltage-dependence of block which has been interpreted as differential binding to the resting, open, and inactivated states of the sodium channel (Hille, B., Journal of General Physiology (1977), 69: 497-515).\nThe following voltage clamp electrophysiology studies are performed on representative compounds using cells heterologously expressing Nav1.7 or Nav1.5 channels. cDNAs for Nav1.7 (NM_002977) and Nav1.5 (AC137587) are stably expressed in Chinese Hamstr Ovary (CHO) cells and CHL (Chinese Hamster Lung) cells respectively. Sodium currents are measured in the whole-cell configuration using Syncropatch 384PE (Nanlon Technologies, Germany). 1NPC®-384 chips with custom medium resistance and single hole mode are used. Internal solution consists of (in mM): […], 10 CsCl, 20 EGTA, and 10 Hepes (pH adjusted to 7.2); and external solution contains (in mM): 60 NMDG, 80 NaCl, 4 KCl, 1 MgCl2, 2 CaCl2, 2 D-Glucose monohydrate, 10 Hepes (pH adjusted to 7.4 with NaOH).\nAfter system flushing, testing compounds are dissolved in external solution containing 0.1% Pluronic F-127. The chip is moved into the measuring head and the instrument primes the chip with external and internal solutions. 10 μl cells are added to the chip from a cell hotel, and a negative pressure of −50 mBar is applied to form a seal. Following treatment with seal enhancer solution and wash-off with external solution, negative pressure of −250 mbar is applied for 1 second to achieve the whole-cell configuration, followed by three washing steps in external solution. 20 μl of compounds is added to 40 μl in each well (1:3 dilution of compounds), and after mixing, 20 μl is removed so the volume is retained at 40 ul. After approximately 13 minutes recordings, 20 μl/well of 2 uM TTX, or 333 uM Tetracaine (for […]) is added to achieve full block.\nFor voltage protocol, an holding potential of −50 mV is applied during the whole experiment. A depolarizing step is applied to −10 mV for 10 ms, followed by a hyperpolarization step to −150 mV for 20 ms to allow channel recovery from inactivation. A second depolarizing step is applied from −150 mV to −10 mV for 10 ms, where currents are measured to derive blocking effects of compounds. Inhibition is determined based on 7.5 min of compound incubation.", "values": [
      {"smiles": "CN(C)[C@H]1C[C@@H](c2cccc(C(F)(F)F)c2)CC[C@@H]1Oc1ccc(S(=O)(=O)Nc2ccncn2)cn1", "note": "[Example 1, 6-(((1S,2S,4S)-2-(Dimethylamino)-4-(3-(trifluoromethyl)phenyl)cyclohexyl)oxy)-N-(pyrimidin-4-yl)pyridine-3-sulfonamide]", "pIC50": 9.05},
      {"smiles": "CN(C)[C@H]1C[C@@H](c2cccc(C(F)(F)F)c2)CC[C@@H]1Oc1ncc(S(=O)(=O)Nc2ccncn2)cc1Cl", "note": "[Example 3, 5-Chloro-6-(((1S,2S,4S)-2-(dimethylamino)-4-(3-(trifluoromethyl)phenyl)cyclohexyl)oxy)-N-(pyrimidin-4-yl)pyridine-3-sulfonamide]", "pIC50": 8.66},
      {"smiles": "CN(C)[C@H]1C[C@@H](c2cccc(C(F)(F)F)c2)CC[C@@H]1Nc1ncc(S(=O)(=O)Nc2ccncn2)cc1Cl", "note": "[Example 4, 5-Chloro-6-(((1S,2S,4S)-2-(dimethylamino)-4-(3-(trifluoromethyl)phenyl)cyclohexyl)amino)-N-(pyrimidin-4-yl)pyridine-3-sulfonamide]", "pIC50": 9.12},
      {"smiles": "CN(C)[C@H]1C[C@@H](c2cccc(C(F)(F)F)c2)CC[C@@H]1Nc1ccc(S(=O)(=O)Nc2ccncn2)nc1", "note": "[Example 5, 5-(((1S,2S,4S)-2-(Dimethylamino)-4-(3-(trifluoromethyl)phenyl)cyclohexyl)amino)-N-(pyrimidin-4-yl)pyridine-2-sulfonamide]", "pIC50": 8.08},
      {"smiles": "CN(C)[C@H]1C[C@@H](c2cccc(C(F)(F)F)c2)CC[C@@H]1Oc1ncc(S(=O)(=O)Nc2ccncn2)cc1C#N", "note": "[Example 6, 5-Cyano-6-(((1S,2S,4S)-2-(dimethylamino)-4-(3-(trifluoromethyl)phenyl)cyclohexyl)oxy)-N-(pyrimidin-4-yl)pyridine-3-sulfonamide formate]", "pIC50": 8.45},
      {"smiles": "CN(C)[C@H]1C[C@@H](c2cccc(C(F)(F)F)c2)CC[C@@H]1Oc1ncc(S(=O)(=O)Nc2ccncn2)cc1C1CC1", "note": "[Example 7, 5-Cyclopropyl-6-(((1S,2S,4S)-2-(dimethylamino)-4-(3-(trifluoromethyl)phenyl)cyclohexyl)oxy)-N-(pyrimidin-4-yl)pyridine-3-sulfonamide formate]", "pIC50": 8.94},
      {"smiles": "O=S(=O)(Nc1ccncn1)c1ccc(O[C@H]2CC[C@H](c3cccc(OC(F)(F)F)c3)C[C@@H]2N2CCCC2)nc1", "note": "[Example 10, N-(pyrimidin-4-yl)-6-(((1S,2S,4S)-2-(pyrrolidin-1-yl)-4-(3-(trifluoromethoxy)phenyl)cyclohexyl)oxy)-pyridine-3-sulfonamide]", "pIC50": 8.25},
      {"smiles": "CN(C)[C@H]1C[C@@H](c2ccc(Cl)c(C(F)(F)F)c2)CC[C@@H]1Nc1ccc(S(=O)(=O)Nc2ccncn2)cn1", "note": "[Example 11, 6-(((1S,2S,4S)-4-(4-chloro-3-(trifluoromethyl)phenyl)-2-(dimethylamino)cyclohexyl)amino)-N-(pyrimidin-4-yl)pyridine-3-sulfonamide formate]", "pIC50": 8.97},
      {"smiles": "CN(C)[C@H]1C[C@@H](c2ccc(Cl)c(C(F)(F)F)c2)CC[C@@H]1Oc1ccc(S(=O)(=O)Nc2ccncn2)cn1", "note": "[Example 12, 6-(((1S,2S,4S)-4-(4-chloro-3-(trifluoromethyl)phenyl)-2-(dimethylamino)cyclohexyl)oxy)-N-(pyrimidin-4-yl)pyridine-3-sulfonamide formate]", "pIC50": 9.18},
      {"smiles": "CN(C)[C@H]1C[C@@H](c2cccc(OC(F)(F)F)c2)CC[C@@H]1Oc1ncc(S(=O)(=O)Nc2ccncn2)cc1Cl", "note": "[Example 13, 5-chloro-6-(((1S,2S,4S)-2-(dimethylamino)-4-(3-(trifluoromethoxy)phenyl)cyclohexyl)oxy)-N-(pyrimidin-4-yl)pyridine-3-sulfonamide]", "pIC50": 8.81},
      {"smiles": "CN(C)[C@H]1C[C@@H](c2cccc(C(F)(F)F)c2)CC[C@@H]1Oc1ncc(S(=O)(=O)Nc2ccncn2)cc1C(F)(F)F", "note": "[Example 14, 6-(((1S,2S,4S)-2-(dimethylamino)-4-(3-(trifluoromethyl)phenyl)cyclohexyl)oxy)-N-(pyrimidin-4-yl)-5-(trifluoromethyl)pyridine-3-sulfonamide]", "pIC50": 8.29},
      {"smiles": "Cc1cc(S(=O)(=O)Nc2ccncn2)cnc1O[C@H]1CC[C@H](c2cccc(C(F)(F)F)c2)C[C@@H]1N(C)C", "note": "[Example 15, 6-(((1S,2S,4S)-2-(Dimethylamino)-4-(3-(trifluoromethyl)phenyl)cyclohexyl)oxy)-5-methyl-N-(pyrimidin-4-yl)pyridine-3-sulfonamide]", "pIC50": 8.37},
      {"smiles": "O=S(=O)(Nc1ccncn1)c1ccc(N[C@H]2CC[C@H](c3cccc(C(F)(F)F)c3)C[C@@H]2N2CCCC2)nc1", "note": "[Example 16, N-(pyrimidin-4-yl)-6-(((1S,2S,4S)-2-(pyrrolidin-1-yl)-4-(3-(trifluoromethyl)phenyl)cyclohexyl)-amino)pyridine-3-sulfonamide formate]", "pIC50": 8.55},
      {"smiles": "O=S(=O)(Nc1ccncn1)c1ccc(O[C@H]2CC[C@H](c3cccc(C(F)(F)F)c3)C[C@@H]2N2CCCC2)nc1", "note": "[Example 17, N-(pyrimidin-4-yl)-6-(((1S,2S,4S)-2-(pyrrolidin-1-yl)-4-(3-(trifluoromethyl)phenyl)cyclohexyl)oxy)-pyridine-3-sulfonamide formate]", "pIC50": 9.22},
      {"smiles": "O=S(=O)(Nc1ccncn1)c1cnc(O[C@H]2CC[C@H](c3cccc(C(F)(F)F)c3)C[C@@H]2N2CCCC2)c(Cl)c1", "note": "[Example 18, 5-chloro-N-(pyrimidin-4-yl)-6-(((1S,2S,4S)-2-(pyrrolidin-1-yl)-4-(3-(trifluoromethyl)phenyl)-cyclohexyl)oxy)pyridine-3-sulfonamide]", "pIC50": 9.41},
      {"smiles": "O=S(=O)(Nc1ccncn1)c1cnc(O[C@H]2CC[C@H](c3cccc(C(F)(F)F)c3)C[C@@H]2N2CCCCC2)c(Cl)c1", "note": "[Example 19, 5-chloro-6-(((1S,2S,4S)-2-(piperidin-1-yl)-4-(3-(trifluoromethyl)phenyl)cyclohexyl)oxy)-N-(pyrimidin-4-yl)pyridine-3-sulfonamide]", "pIC50": 9.55},
      {"smiles": "CN(C)[C@H]1C[C@@H](c2cccc(C(F)(F)F)c2)CC[C@@H]1Oc1ncc(S(=O)(=O)Nc2ccncn2)cc1Br", "note": "[Example 20, 5-bromo-6-(((1S,2S,4S)-2-(dimethylamino)-4-(3-(trifluoromethyl)phenyl)cyclohexyl)oxy)-N-(pyrimidin-4-yl)pyridine-3-sulfonamide formate]", "pIC50": 9.05},
      {"smiles": "CN(C)[C@H]1C[C@@H](c2cccc(C(F)(F)F)c2)CC[C@@H]1Oc1ncc(S(=O)(=O)Nc2ccncn2)cc1F", "note": "[Example 21, 6-(((1S,2S,4S)-2-(Dimethylamino)-4-(3-(trifluoromethyl)phenyl)cyclohexyl)oxy)-5-fluoro-N-(pyrimidin-4-yl)pyridine-3-sulfonamide]", "pIC50": 9.37},
      {"smiles": "CN(C)[C@H]1C[C@@H](c2cccc(C(F)(F)F)c2)CC[C@@H]1Oc1ccc(S(=O)(=O)Nc2ccncn2)c(Cl)n1", "note": "[Example 22, 2-Chloro-6-(((1S,2S,4S)-2-(dimethylamino)-4-(3-(trifluoromethyl)phenyl)cyclohexyl)oxy)-N-(pyrimidin-4-yl)pyridine-3-sulfonamide]", "pIC50": 8.66},
      {"smiles": "Cc1nc(O[C@H]2CC[C@H](c3cccc(C(F)(F)F)c3)C[C@@H]2N(C)C)ccc1S(=O)(=O)Nc1ccncn1", "note": "[Example 23, 6-(((1S,2S,4S)-2-(Dimethylamino)-4-(3-(trifluoromethyl)phenyl)cyclohexyl)oxy)-2-methyl-N-(pyrimidin-4-yl)pyridine-3-sulfonamide formate]", "pIC50": 9.12},
      {"smiles": "CCc1cc(S(=O)(=O)Nc2ccncn2)cnc1O[C@H]1CC[C@H](c2cccc(C(F)(F)F)c2)C[C@@H]1N(C)C", "note": "[Example 24, 6-(((1S,2S,4S)-2-(Dimethylamino)-4-(3-(trifluoromethyl)phenyl)cyclohexyl)oxy)-5-ethyl-N-(pyrimidin-4-yl)pyridine-3-sulfonamide formate]", "pIC50": 8.08},
      {"smiles": "CN(C)[C@H]1C[C@@H](c2cccc(OC(F)(F)F)c2)CC[C@@H]1Oc1ccc(S(=O)(=O)Nc2ccncn2)cn1", "note": "[Example 25, 6-(((1S,2S,4S)-2-(dimethylamino)-4-(3-(trifluoromethoxy)phenyl)cyclohexyl)oxy)-N-(pyrimidin-4-yl)pyridine-3-sulfonamide formate]", "pIC50": 8.45},
      {"smiles": "O=S(=O)(Nc1ccncn1)c1ccc(O[C@H]2CC[C@H](c3cccc(C(F)(F)F)c3)C[C@@H]2N2CCCCC2)nc1", "note": "[Example 26, 6-(((1S,2S,4S)-2-(piperidin-1-yl)-4-(3-(trifluoromethyl)phenyl)cyclohexyl)oxy)-N-(pyrimidin-4-yl)pyridine-3-sulfonamide]", "pIC50": 8.94}
    ]}
  ]
}
